Measured values from ChEMBL document CHEMBL4017445, “Development and crystallographic evaluation of histone H3 peptide with N-terminal serine substitution as a potent inhibitor of lysine-specific demethylase 1” (Bioorg Med Chem, 2017).

Biological target: Lysine-specific histone demethylase 1A (Homo sapiens, UniProt O60341)
Assay: Inhibition of human LSD1 (172 to 833 residues) assessed as reduction in H2O2 production using H3K4me2 (1 to 20 residues) peptide as substrate preincubated for 10 mins followed by substrate addition measured after 30 mins by peroxidase coupled enzyme assay

| Structure (SMILES) | Ki |
| --- | --- |
| CSCC[C@H](NC(=O)[C@@H](NC(=O)[C@H](CCCNC(=N)N)NC(=O)CO)[C@@H](C)O)C(=O)N[C@@H](CCC(N)=O)C(=O)N[C@H](C(=O)N[C@@H](C)C(=O)N[C@@H](CCCNC(=N)N)C(=O)N[C@@H](CCCCN)C(=O)N[C@@H](CO)C(=O)N[C@H](C(=O)NCC(=O)NCC(=O)N[C@@H](CCCCN)C(=O)N[C@@H](C)C(=O)N1CCC[C@H]1C(=O)N[C@@H](CCCNC(=N)N)C(=O)N[C@@H](CCCCN)C(=O)N[C@@H](CCC(N)=O)C(=O)N[C@@H](CC(C)C)C(N)=O)[C@@H](C)O)[C@@H](C)O | 170 µM |
| CSCC[C@H](NC(=O)[C@@H](NC(=O)[C@@H](N)CCCNC(=N)N)[C@@H](C)O)C(=O)N[C@@H](CCC(N)=O)C(=O)N[C@H](C(=O)N[C@@H](C)C(=O)N[C@@H](CCCNC(=N)N)C(=O)N[C@@H](CCCCN)C(=O)N[C@@H](CO)C(=O)N[C@H](C(=O)NCC(=O)NCC(=O)N[C@@H](CCCCN)C(=O)N[C@@H](C)C(=O)N1CCC[C@H]1C(=O)N[C@@H](CCCNC(=N)N)C(=O)N[C@@H](CCCCN)C(=O)N[C@@H](CCC(N)=O)C(=O)N[C@@H](CC(C)C)C(N)=O)[C@@H](C)O)[C@@H](C)O | > 500 µM |
